The assay deals with CD2F1 mice, L1210 leukemia ip, survival T/C. Nature of the assay: NCI In Vivo Anticancer Drug Screen. Data for tumor model L1210 Leukemia (intraperitoneal) in CD2F1 (CDF1) mice. The conditions noted are these: higher = longer survival. In a few lines:
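Read-out first: treated-group measurement over vehicle-control measurement, expressed as a ratio. Animals bore a transplanted tumor line and were dosed with compound or vehicle.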

The mark [1] stands for this setting: endpoint: mean survival time, dose: 100.0 mg/kg/injection, schedule: Q04DX003 (ip), vehicle: saline.
Setting [2] is: endpoint: mean survival time, dose: 200.0 mg/kg/injection, schedule: Q04DX003 (ip), vehicle: saline.
Where [3] appears, read: endpoint: mean survival time, dose: 400.0 mg/kg/injection, schedule: Q04DX003 (ip), vehicle: saline.
The mark [4] stands for this setting: endpoint: mean survival time, dose: 200.0 mg/kg/injection, schedule: Q01DX001 (ip), vehicle: saline.
Where [5] appears, read: endpoint: mean survival time, dose: 50.0 mg/kg/injection, schedule: Q01DX009 (ip), vehicle: saline.
Setting [6] is: endpoint: mean survival time, dose: 100.0 mg/kg/injection, schedule: Q01DX009 (ip), vehicle: saline.
The mark [7] stands for this setting: endpoint: mean survival time, dose: 100.0 mg/kg/injection, schedule: Q01DX001 (ip), vehicle: saline.
[8] abbreviates: endpoint: mean survival time, dose: 400.0 mg/kg/injection, schedule: Q01DX001 (ip), vehicle: saline.
The mark [9] stands for this setting: endpoint: mean survival time, dose: 50.0 mg/kg/injection, schedule: Q01DX009 (ip), vehicle: saline with Tween-80.
The mark [10] stands for this setting: endpoint: mean survival time, dose: 100.0 mg/kg/injection, schedule: Q01DX009 (ip), vehicle: saline with Tween-80.
Where [11] appears, read: endpoint: mean survival time, dose: 100.0 mg/kg/injection, schedule: Q04DX003 (ip), vehicle: saline with Tween-80.

Several values for one entry are separate records, joined by “and”; a condition that tells them apart may be missing. Equal entries are not always repeated. Inconclusive results and toxic doses are left out.

`CCOC(=O)CC(C)(O)Cc1ccccc1` (configuration not stated): the T/C reads like this: (endpoint: mean survival time, dose: 100.0 mg/kg/injection, schedule: Q04DX003 (ip), vehicle: acetone) 96 % of control; (endpoint: mean survival time, dose: 200.0 mg/kg/injection, schedule: Q04DX003 (ip), vehicle: acetone) 87 % of control; (endpoint: mean survival time, dose: 400.0 mg/kg/injection, schedule: Q04DX003 (ip), vehicle: acetone) 102 % of control.
Take `CNc1cc(=O)[nH]cn1`: the T/C (endpoint: mean survival time, dose: 100.0 mg/kg/injection, schedule: Q01DX001 (ip), vehicle: saline with Tween-80) is 95 % of control; the T/C (endpoint: mean survival time, dose: 200.0 mg/kg/injection, schedule: Q01DX001 (ip), vehicle: saline with Tween-80) is 100 % of control; the T/C (endpoint: mean survival time, dose: 400.0 mg/kg/injection, schedule: Q01DX001 (ip), vehicle: saline with Tween-80) is 101 % of control.
`c1ccc2c(NC3=NCCO3)c3ccccc3nc2c1`: the T/C by setting is: (endpoint: mean survival time, dose: 12.5 mg/kg/injection, schedule: Q04DX003 (ip), vehicle: saline with Tween-80) 93 % of control; (endpoint: mean survival time, dose: 25.0 mg/kg/injection, schedule: Q04DX003 (ip), vehicle: saline with Tween-80) 96 % of control.
With `O=S1(=O)CC2(N3CCOCC3)CCCCC21` (configuration not stated), the T/C is, setting by setting: under setting [1], 100 % of control; under setting [2], 102 % of control; under setting [3], 104 % of control.
Take `NC(CCSCc1ccc(N(CCCl)CCCl)cc1)C(=O)O` (configuration not stated): the T/C (endpoint: mean survival time, dose: 14.0 mg/kg/injection, schedule: Q01DX009 (ip), vehicle: carboxymethylcellulose (CMC)) was 152 % of control.
`Cc1nc(C)c(Cc2ccccc2O)c(=O)[nH]1`: the T/C under setting [4] was 103 % of control.
Consider `CC(=O)OCC1OC([n+]2c([O-])cc(=O)n3ccsc32)C(OC(C)=O)C1OC(C)=O` (configuration not stated), for which the T/C (endpoint: median survival time, dose: 11.25 mg/kg/injection, schedule: Q01DX005 (ip), vehicle: water) is 101 % of control; the T/C (endpoint: median survival time, dose: 12.5 mg/kg/injection, schedule: Q01DX005 (ip), vehicle: distilled water + Tween-80) is 103 % of control; the T/C (endpoint: median survival time, dose: 22.5 mg/kg/injection, schedule: Q01DX005 (ip), vehicle: water) was 100 % of control; the T/C (endpoint: median survival time, dose: 25.0 mg/kg/injection, schedule: Q01DX005 (ip), vehicle: distilled water + Tween-80) was 98 % of control; the T/C (endpoint: median survival time, dose: 45.0 mg/kg/injection, schedule: Q01DX005 (ip), vehicle: water) is 108 % of control; the T/C (endpoint: median survival time, dose: 50.0 mg/kg/injection, schedule: Q01DX005 (ip), vehicle: distilled water + Tween-80) was 98 % of control. Besides, the T/C is, setting by setting: (endpoint: median survival time, dose: 90.0 mg/kg/injection, schedule: Q01DX005 (ip), vehicle: water) 114 % of control; (endpoint: median survival time, dose: 100.0 mg/kg/injection, schedule: Q01DX005 (ip), vehicle: distilled water + Tween-80) 102 % of control; (endpoint: median survival time, dose: 180.0 mg/kg/injection, schedule: Q01DX005 (ip), vehicle: water) 101 % of control; (endpoint: median survival time, dose: 200.0 mg/kg/injection, schedule: Q01DX005 (ip), vehicle: distilled water + Tween-80) 95 % of control.
In the case of `CCCN(CCC)N=Nc1ccccc1`, the T/C runs as follows: (endpoint: mean survival time, dose: 75.0 mg/kg/injection, schedule: Q01DX001 (ip), vehicle: saline) 104 % of control; (endpoint: mean survival time, dose: 150.0 mg/kg/injection, schedule: Q01DX001 (ip), vehicle: saline) 101 % of control.
As for `O=C(N1CCOCC1)C1(c2ccccc2)CCNCC1`, the T/C runs as follows: under setting [5], 93 % of control; under setting [6], 104 % of control.
As to `Cc1cc(C)c(Sc2c3ccccc3cc3ccccc23)c(C)c1`, the T/C runs as follows: under setting [7], 91 % of control; under setting [1], 93 % of control; under setting [4], 101 % of control; under setting [2], 87 % of control; under setting [8], 100 % of control; under setting [3], 95 % of control.
Consider `COC1CC(O)C(OS(=O)(=O)c2ccc(C)cc2)C(C)O1` (configuration not stated), for which the T/C is, setting by setting: under setting [7], 112 % of control; under setting [4], 100 % of control; under setting [8], 102 % of control.
As for `CCSC#N`, the T/C is, setting by setting: (endpoint: mean survival time, dose: 2.5 mg/kg/injection, schedule: Q01DX009 (ip), vehicle: Klucel (hydroxypropylcellulose) (HPC)) 98 % of control; (endpoint: mean survival time, dose: 5.0 mg/kg/injection, schedule: Q01DX009 (ip), vehicle: Klucel (hydroxypropylcellulose) (HPC)) 102 % of control; (endpoint: mean survival time, dose: 10.0 mg/kg/injection, schedule: Q01DX009 (ip), vehicle: Klucel (hydroxypropylcellulose) (HPC)) 102 % of control.
In the case of `O=[N+]([O-])c1ccc(OP2(Oc3ccc([N+](=O)[O-])cc3)=NP(Oc3ccc([N+](=O)[O-])cc3)(Oc3ccc([N+](=O)[O-])cc3)=NP(Oc3ccc([N+](=O)[O-])cc3)(Oc3ccc([N+](=O)[O-])cc3)=NP(Oc3ccc([N+](=O)[O-])cc3)(Oc3ccc([N+](=O)[O-])cc3)=N2)cc1`, the T/C (endpoint: mean survival time, dose: 25.0 mg/kg/injection, schedule: Q01DX009 (ip), vehicle: saline) is 100 % of control; the T/C under setting [5] is 100 % of control; the T/C under setting [6] is 100 % of control; the T/C under setting [1] was 102 % of control; the T/C under setting [2] is 100 % of control; the T/C under setting [3] was 96 % of control.
`CCOC(=O)C#CC1CCCCC1`: the T/C was 98 % of control under setting [9]; 98 % of control under setting [10]; 102 % of control (endpoint: mean survival time, dose: 200.0 mg/kg/injection, schedule: Q01DX009 (ip), vehicle: saline with Tween-80).
In the case of `CS(=O)(=O)c1cc(C(F)(F)F)cc([N+](=O)[O-])c1Cl`, the T/C is 103 % of control under setting [9]; 103 % of control under setting [10]; 97 % of control under setting [11]; 94 % of control (endpoint: mean survival time, dose: 200.0 mg/kg/injection, schedule: Q04DX003 (ip), vehicle: saline with Tween-80).
With `CC(C(=O)c1ccccc1)N(C)C` (configuration not stated), the T/C under setting [1] was 100 % of control.
Regarding `O=C(NCCCl)NCCCl`, the T/C (endpoint: median survival time, dose: 267.0 mg/kg/injection, schedule: Q07DX003 (ip), vehicle: saline) was 103 % of control; the T/C (endpoint: median survival time, dose: 400.0 mg/kg/injection, schedule: Q07DX003 (ip), vehicle: saline) is 97 % of control; the T/C (endpoint: median survival time, dose: 600.0 mg/kg/injection, schedule: Q07DX003 (ip), vehicle: saline) is 94 % of control; the T/C (endpoint: median survival time, dose: 800.0 mg/kg/injection, schedule: Q07DX003 (ip), vehicle: saline) was 99 % of control and 100 % of control.
For `COC1C(O)C(C)OC(O[C@@H]2C[C@H]3CC[C@@H]4[C@H](CC[C@]5(C)[C@@H](C6=CC(=O)OC6)CC[C@]45O)[C@@]3(C)[C@H](O)C2)C1O` (some centres not stated), the T/C was 90 % of control (endpoint: mean survival time, dose: 75.0 mg/kg/injection, schedule: Q01DX001 (ip), vehicle: other) and 91 % of control (endpoint: mean survival time, dose: 150.0 mg/kg/injection, schedule: Q01DX001 (ip), vehicle: other).
With `CC1CN1P(=O)(N1CC1C)N1CC1C.CC1CN1P(=O)(N1CC1C)N1CC1C.CC1CN1P(=O)(N1CC1C)N1CC1C.CC1CN1P(=O)(N1CC1C)N1CC1C.CC1CN1P(=O)(N1CC1C)N1CC1C.CC1CN1P(=O)(N1CC1C)N1CC1C.[Fe+3].[O-][Cl+3]([O-])([O-])O` (configuration not stated), the T/C by setting is: (endpoint: mean survival time, dose: 100.0 mg/kg/injection, schedule: Q04DX002 (ip), vehicle: saline with Tween-80) 98 % of control; (endpoint: mean survival time, dose: 200.0 mg/kg/injection, schedule: Q04DX002 (ip), vehicle: saline with Tween-80) 98 % of control; (endpoint: mean survival time, dose: 400.0 mg/kg/injection, schedule: Q04DX002 (ip), vehicle: saline with Tween-80) 115 % of control.
Regarding `COc1ccc(OC)c(C(=O)C[n+]2ccccc2)c1`, the T/C reads like this: (endpoint: mean survival time, dose: 12.5 mg/kg/injection, schedule: Q01DX009 (ip), vehicle: saline with Tween-80) 101 % of control; (endpoint: mean survival time, dose: 12.5 mg/kg/injection, schedule: Q04DX003 (ip), vehicle: saline) 106 % of control; (endpoint: mean survival time, dose: 25.0 mg/kg/injection, schedule: Q01DX009 (ip), vehicle: saline with Tween-80) 103 % of control; (endpoint: mean survival time, dose: 25.0 mg/kg/injection, schedule: Q04DX003 (ip), vehicle: saline) 109 % of control; under setting [9], 100 % of control; (endpoint: mean survival time, dose: 50.0 mg/kg/injection, schedule: Q04DX003 (ip), vehicle: saline) 111 % of control.
Turning to `CN(C)C(C)(C)CC(C)(C)C`, the T/C under setting [11] was 96 % of control.
As for `OCC1CC2c3[nH]c4ccccc4c3CCN2C1` (configuration not stated), the T/C runs as follows: (endpoint: mean survival time, dose: 20.0 mg/kg/injection, schedule: Q01DX001 (ip), vehicle: saline with Tween-80) 95 % of control; (endpoint: mean survival time, dose: 40.0 mg/kg/injection, schedule: Q01DX001 (ip), vehicle: saline with Tween-80) 90 % of control; (endpoint: mean survival time, dose: 80.0 mg/kg/injection, schedule: Q01DX001 (ip), vehicle: saline with Tween-80) 93 % of control.

(Values after PubChem BioAssay AID256 (DTP/NCI, 2004).)
